Experimental data reported in patent US20060079537A1, “2-Substitutued triazolopyrimidines, methods and intermediate products for the production thereof, the use of the same controlling pathogenic fungi, and agents containing said compounds” (priority 2002, published 2006).

Tested on: Alternaria solani
Test: Activity against early blight of tomato caused by Alternaria solani, protective application
Assay type: in vivo
Conditions: 250 ppm active compound, sprayed to runoff one day before infection; visual rating after 5 days; untreated plants 100% infected
Protocol: The active compounds were formulated as a stock solution prepared using 0.25% by weight of active compound in acetone of DMSO. 1% by weight of the emulsifier Uniperol® EL (wetting agent having emulsifying and dispersant action based on ethoxylated alkylphenols) was added to this solution, and the solution was diluted with water to give the desired concentration.
Leaves of potted plants of the tomato cultivar: “Large Fruited St. Pierre” were sprayed to runoff point with an aqueous suspension having the concentration of active compound stated below. The next day, the leaves were infected with an aqueous spore suspension of Alternaria solani in a 2% biomalt solution having a density of 0.17×10^6 spores/ml. The plants were then placed in a water-vapor-saturated chamber at 20-22° C. After 5 days, the blight on the untreated but infected control plants had developed to such an extent that the infection could be determined visually in %.

CSc1nc2nc(C)c(-c3c(F)cc(F)cc3F)c(N3CCC(C)CC3)n2n1 [Example 3, 5-methyl-6-(2,4,6-trifluorophenyl)-7-(4-methylpiperidin-1-yl)-2-thiomethyl-[1,2,4]-triazolo[1,5-a]pyrimidine]
infection: 20%
